Results taken from PMC4138103 (PLoS ONE, 2014).
Where two headings read alike, the source gives them in different places.

Test system: Sprague-Dawley rats
Assay: Bone geometry and densitometry (pQCT of tibia)
Assay type: in vivo, Rattus norvegicus
Set-up: key to Dose response: Densitometry, diaphysis, Cortical area / Dose response: Densitometry, metaphysis, Trabecular area: D: significant dose response (for results, see Table 2); T: significant trend
Conditions: for CED, Cortical area of diaphysis / CED-L, Cortical area of diaphysis: M; for Emax: Rattus norvegicus
Procedure: Hind limbs were collected and frozen at −20°C. Dissected right tibias were cleaned from soft tissue and stored in Ringer solution at −20°C until analysis. The length of each bone was measured using an electronic sliding caliper to the nearest 0.01 mm (IP65, Sylvac SA, Crissier, Switzerland). […] The thresholds for defining trabecular bone were 280 and 400 mg/cm^3, while cortical bone was defined above a threshold of 710 mg/cm^3. The voxel size was 0.07 mm.
Data were also analyzed using the BMD method, which is based on dose-response modeling of the full data set using a nested family of exponential and Hill models. The analyses were done on data of males and females combined, using sex as a covariate. […] In that case, different Critical Effect Doses (CEDs) and CEDs at the lowest bound of the confidence interval (CED-L) were generated for each sex. If no difference between sexes is detected, a CED and CED-Ls for the combined data is generated. However, this was also done if the curve fits are close, and separate analyses for males and females were then performed manually. CEDs and CED-Ls were calculated at the predefined Critical Effect Size (CES) of 5% (EFSA standard) or 10%.

[1] = F, CES 5%, model E2, adipose tissue concentration based
[2] = F, CES 10%, model E2, adipose tissue concentration based
[3] = CES 5%, model E2, adipose tissue concentration based
[4] = CES 10%, model E2, adipose tissue concentration based
[5] = females, CES 5%, total dose based
[6] = males, CES 5%, total dose based
[7] = tibia, females, total dose 3 mg/kg bw
[8] = tibia, females, total dose 10 mg/kg bw
[9] = tibia, females, total dose 30 mg/kg bw
[10] = tibia, females, total dose 100 mg/kg bw
[11] = tibia, females, total dose 300 mg/kg bw
[12] = tibia, females, total dose 1000 mg/kg bw
[13] = tibia, females, total dose 1700 mg/kg bw
[14] = tibia, males, total dose 3 mg/kg bw
[15] = tibia, males, total dose 10 mg/kg bw
[16] = tibia, males, total dose 30 mg/kg bw
[17] = tibia, males, total dose 100 mg/kg bw
[18] = tibia, males, total dose 300 mg/kg bw
[19] = tibia, males, total dose 1000 mg/kg bw
[20] = tibia, males, total dose 1700 mg/kg bw

## Clc1cc(Cl)c(-c2cc(Cl)c(Cl)c(Cl)c2Cl)cc1Cl [PCB 180, 2,2′,3′,4,4′,5,5′-heptachlorobiphenyl]
[1]
  CED, Trabecular area of metaphysis: 6230 µg/g lipid
  CED-L, Trabecular area of metaphysis: 3714 µg/g lipid
[2]
  CED, Trabecular area of metaphysis: 12200 µg/g lipid
  CED-L, Trabecular area of metaphysis: 7255 µg/g lipid
[3]
  CED, Cortical area of diaphysis: 5930 µg/g lipid
  CED-L, Cortical area of diaphysis: 3506 µg/g lipid
[4]
  CED, Cortical area of diaphysis: 12200 µg/g lipid
  CED-L, Cortical area of diaphysis: 7202 µg/g lipid
F, model E2, controls vs high dose according to the fitted model, read-out: Maximum response, Trabecular area of metaphysis
  Emax: 9.25%
females, controls vs high dose, fitted model, read-out: Trabecular area of metaphysis, Maximum response
  Emax: 8.2%
males, controls vs high dose, fitted model, read-out: Cortical area of diaphysis, Maximum response
  Emax: -6.1%
Model E2, controls vs high dose according to the fitted model, read-out: Maximum response, Cortical area of diaphysis
  Emax: -6.19%
[5]
  Trabecular area of metaphysis, CED: 1040 mg/kg bw
  Trabecular area of metaphysis, CED-L: 602 mg/kg bw
females, adipose tissue concentration based
  Trabecular area of metaphysis, CED: 6230 µg/g lipid
females, controls vs high dose, fitted model
  Trabecular area of metaphysis, Maximum response: 8.30%
[6]
  Cortical area of diaphysis, CED: 1380 mg/kg bw
  Cortical area of diaphysis, CED-L: 820 mg/kg bw
males, adipose tissue concentration based
  Cortical area of tibial diaphysis, CED: 5930 µg/g lipid
[7]
  Densitometry, diaphysis: Cortical area: 3.25 mm2
  Densitometry, diaphysis: Cortical density: 1315 mg/cm3
  Densitometry, diaphysis: Cortical thickness: 0.49 mm
  Densitometry, diaphysis: Endosteal circumference: 5.06 mm
  Densitometry, diaphysis: Periosteal circumference: 8.15 mm
  Densitometry, metaphysis: Total density: 570 mg/cm3
  Densitometry, metaphysis: Trabecular area: 5.33 mm2
  Densitometry, metaphysis: Trabecular density: 195 mg/cm3
[8]
  Densitometry, diaphysis: Cortical area: 3.22 mm2
  Densitometry, diaphysis: Cortical density: 1312 mg/cm3
  Densitometry, diaphysis: Cortical thickness: 0.49 mm
  Densitometry, diaphysis: Endosteal circumference: 5.06 mm
  Densitometry, diaphysis: Periosteal circumference: 8.12 mm
  Densitometry, metaphysis: Total density: 571 mg/cm3
  Densitometry, metaphysis: Trabecular area: 5.37 mm2
  Densitometry, metaphysis: Trabecular density: 199 mg/cm3
[9]
  Densitometry, diaphysis: Cortical area: 3.23 mm2
  Densitometry, diaphysis: Cortical density: 1311 mg/cm3
  Densitometry, diaphysis: Cortical thickness: 0.49 mm
  Densitometry, diaphysis: Endosteal circumference: 5.08 mm
  Densitometry, diaphysis: Periosteal circumference: 8.14 mm
  Densitometry, metaphysis: Total density: 569 mg/cm3
  Densitometry, metaphysis: Trabecular area: 5.52 mm2
  Densitometry, metaphysis: Trabecular density: 211 mg/cm3
[10]
  Densitometry, diaphysis: Cortical area: 3.21 mm2
  Densitometry, diaphysis: Cortical density: 1307 mg/cm3
  Densitometry, diaphysis: Cortical thickness: 0.49 mm
  Densitometry, diaphysis: Endosteal circumference: 4.95 mm
  Densitometry, diaphysis: Periosteal circumference: 8.06 mm
  Densitometry, metaphysis: Total density: 586 mg/cm3
  Densitometry, metaphysis: Trabecular area: 4.99 mm2
  Densitometry, metaphysis: Trabecular density: 209 mg/cm3
[11]
  Densitometry, diaphysis: Cortical area: 3.26 mm2
  Densitometry, diaphysis: Cortical density: 1310 mg/cm3
  Densitometry, diaphysis: Cortical thickness: 0.50 mm
  Densitometry, diaphysis: Endosteal circumference: 5.01 mm
  Densitometry, diaphysis: Periosteal circumference: 8.13 mm
  Densitometry, metaphysis: Total density: 581 mg/cm3
  Densitometry, metaphysis: Trabecular area: 5.25 mm2
  Densitometry, metaphysis: Trabecular density: 214 mg/cm3
[12]
  Densitometry, diaphysis: Cortical area: 3.23 mm2
  Densitometry, diaphysis: Cortical density: 1309 mg/cm3
  Densitometry, diaphysis: Cortical thickness: 0.49 mm
  Densitometry, diaphysis: Endosteal circumference: 4.97 mm
  Densitometry, diaphysis: Periosteal circumference: 8.08 mm
  Densitometry, metaphysis: Total density: 574 mg/cm3
  Densitometry, metaphysis: Trabecular area: 5.41 mm2
  Densitometry, metaphysis: Trabecular density: 209 mg/cm3
[13]
  Densitometry, diaphysis: Cortical area: 3.10 mm2
  Densitometry, diaphysis: Cortical density: 1307 mg/cm3
  Densitometry, diaphysis: Cortical thickness: 0.48 mm
  Densitometry, diaphysis: Endosteal circumference: 5.01 mm
  Densitometry, diaphysis: Periosteal circumference: 8.00 mm
  Densitometry, metaphysis: Total density: 562 mg/cm3
  Densitometry, metaphysis: Trabecular area: 5.84 mm2
  Densitometry, metaphysis: Trabecular density: 221 mg/cm3
tibia, females, total doses 0-1700 mg/kg bw
  Dose response: Densitometry, metaphysis, Trabecular area: D
[14]
  Densitometry, diaphysis: Cortical area: 4.04 mm2
  Densitometry, diaphysis: Cortical density: 1321 mg/cm3
  Densitometry, diaphysis: Cortical thickness: 0.56 mm
  Densitometry, diaphysis: Endosteal circumference: 5.47 mm
  Densitometry, diaphysis: Periosteal circumference: 8.98 mm
  Densitometry, metaphysis: Total density: 493 mg/cm3
  Densitometry, metaphysis: Trabecular area: 8.42 mm2
  Densitometry, metaphysis: Trabecular density: 174 mg/cm3
[15]
  Densitometry, diaphysis: Cortical area: 3.95 mm2
  Densitometry, diaphysis: Cortical density: 1314 mg/cm3
  Densitometry, diaphysis: Cortical thickness: 0.54 mm
  Densitometry, diaphysis: Endosteal circumference: 5.55 mm
  Densitometry, diaphysis: Periosteal circumference: 8.97 mm
  Densitometry, metaphysis: Total density: 465 mg/cm3
  Densitometry, metaphysis: Trabecular area: 8.96 mm2
  Densitometry, metaphysis: Trabecular density: 139 mg/cm3
[16]
  Densitometry, diaphysis: Cortical area: 4.08 mm2
  Densitometry, diaphysis: Cortical density: 1316 mg/cm3
  Densitometry, diaphysis: Cortical thickness: 0.56 mm
  Densitometry, diaphysis: Endosteal circumference: 5.58 mm
  Densitometry, diaphysis: Periosteal circumference: 9.08 mm
  Densitometry, metaphysis: Total density: 485 mg/cm3
  Densitometry, metaphysis: Trabecular area: 8.63 mm2
  Densitometry, metaphysis: Trabecular density: 165 mg/cm3
[17]
  Densitometry, diaphysis: Cortical area: 4.06 mm2
  Densitometry, diaphysis: Cortical density: 1300 mg/cm3
  Densitometry, diaphysis: Cortical thickness: 0.55 mm
  Densitometry, diaphysis: Endosteal circumference: 5.70 mm
  Densitometry, diaphysis: Periosteal circumference: 9.14 mm
  Densitometry, metaphysis: Total density: 458 mg/cm3
  Densitometry, metaphysis: Trabecular area: 9.57 mm2
  Densitometry, metaphysis: Trabecular density: 159 mg/cm3
[18]
  Densitometry, diaphysis: Cortical area: 4.06 mm2
  Densitometry, diaphysis: Cortical density: 1313 mg/cm3
  Densitometry, diaphysis: Cortical thickness: 0.56 mm
  Densitometry, diaphysis: Endosteal circumference: 5.53 mm
  Densitometry, diaphysis: Periosteal circumference: 9.03 mm
  Densitometry, metaphysis: Total density: 474 mg/cm3
  Densitometry, metaphysis: Trabecular area: 8.85 mm2
  Densitometry, metaphysis: Trabecular density: 150 mg/cm3
[19]
  Densitometry, diaphysis: Cortical area: 3.88 mm2
  Densitometry, diaphysis: Cortical density: 1306 mg/cm3
  Densitometry, diaphysis: Cortical thickness: 0.54 mm
  Densitometry, diaphysis: Endosteal circumference: 5.51 mm
  Densitometry, diaphysis: Periosteal circumference: 8.90 mm
  Densitometry, metaphysis: Total density: 468 mg/cm3
  Densitometry, metaphysis: Trabecular area: 8.69 mm2
  Densitometry, metaphysis: Trabecular density: 154 mg/cm3
[20]
  Densitometry, diaphysis: Cortical area: 3.80 mm2
  Densitometry, diaphysis: Cortical density: 1315 mg/cm3
  Densitometry, diaphysis: Cortical thickness: 0.53 mm
  Densitometry, diaphysis: Endosteal circumference: 5.54 mm
  Densitometry, diaphysis: Periosteal circumference: 8.86 mm
  Densitometry, metaphysis: Total density: 483 mg/cm3
  Densitometry, metaphysis: Trabecular area: 8.64 mm2
  Densitometry, metaphysis: Trabecular density: 164 mg/cm3
tibia, males, total doses 0-1700 mg/kg bw
  Dose response: Densitometry, diaphysis, Cortical area: D
